Test results published in patent US20230093099A1, “COMPOUNDS AND METHODS OF TREATING CANCERS” (CULLGEN (SHANGHAI), INC., priority 2019, published 2023).
Like-named read-outs stand apart in the source and are kept apart here.

Legend:
Assay type in all cases: cell-based
HL-60 cells = assay: Cell viability assay (CellTiter-Glo) in HL-60 cells; conditions: HL-60, APL, 3 days
Method: (§1) MV4;11, RS4;11, Kasumi-1, HEL and other cells were treated with NVP-BSK805, TG101209 or selected degraders for 3 days at indicated concentrations following a 3-fold serial dilution.
(§2) HEL, RS4;11, MV4;11, Kasumi-1 and other cells were cultured at 37° C. with 5% CO2 in RPMI 1640 or DMEM Medium supplemented with 10% fetal bovine serum. Cells were authenticated using the short tandem repeat (STR) assays. Mycoplasma test results were negative.
(§3) Cells were seeded at a density of 5000 cells per well in 96-well assay plates and treated with test compounds following a 8-point or 12-point 3-fold serial dilution. Three days later, cell viability was determined using the CellTiter-Glo assay kit according to the manufacturer's instructions. The dose-response curves were determined and IC50 values were calculated using the GraphPad Prism software following a nonlinear regression (least squares fit) method.

WSU-DLCL2 cells = assay: Cell viability assay (CellTiter-Glo) in WSU-DLCL2 cells; conditions: WSU-DLCL2, DLBCL, 3 days
Method: as §1, §2, §3

MM.1S cells = assay: Cell viability assay (CellTiter-Glo) in MM.1S cells; conditions: Multiple Myeloma, 3 days
Method: as §1, §2, §3

MOLT-4 cells = assay: Cell viability assay (CellTiter-Glo) in MOLT-4 cells; conditions: MOLT-4, T-ALL, 3 days
Method: as §1, §2, §3

CCRF-CEM cells = assay: Cell viability assay (CellTiter-Glo) in CCRF-CEM cells; conditions: T-ALL, 3 days
Method: as §1, §2, §3

AMO-1 cells = assay: Cell viability assay (CellTiter-Glo) in AMO-1 cells; conditions: AMO-1, Multiple Myeloma, 3 days
Method: as §1, §2, §3

HEL cells = assay: Cell viability assay (CellTiter-Glo) in HEL cells; conditions: erythroleukemia, cell viability, 3 days
Method: as §1, §2, §3

Jurkat cells = assay: Cell viability assay (CellTiter-Glo) in Jurkat cells; conditions: T-ALL, 3 days
Method: as §1, §2, §3

MEG-01 cells = assay: Cell viability assay (CellTiter-Glo) in MEG-01 cells; conditions: MEG-01, CML, 3 days
Method: as §1, §2, §3

Kasumi-1 cells = assay: Cell viability assay (CellTiter-Glo) in Kasumi-1 cells; conditions: Kasumi-1, AML, cell viability, 3 days
Method: as §1, §2, §3

MOLM-13 cells = assay: Cell viability assay (CellTiter-Glo) in MOLM-13 cells; conditions: MOLM-13, AML, 3 days
Method: as §1, §2, §3

Pfeiffer cells = assay: Cell viability assay (CellTiter-Glo) in Pfeiffer cells; conditions: DLBCL, 3 days
Method: as §1, §2, §3

SU-DHL-1 cells = assay: Cell viability assay (CellTiter-Glo) in SU-DHL-1 cells; conditions: SU-DHL-1, large cell lymphoma, 3 days
Method: as §1, §2, §3

NCI-H929 cells = assay: Cell viability assay (CellTiter-Glo) in NCI-H929 cells; conditions: NCI-H929, Multiple Myeloma, 3 days
Method: as §1, §2, §3

NOMO-1 cells = assay: Cell viability assay (CellTiter-Glo) in NOMO-1 cells; conditions: NOMO-1, AML, 3 days
Method: as §1, §2, §3

RS4;11 cells = assay: Cell viability assay (CellTiter-Glo) in RS4;11 cells; conditions: cell viability, read-out: IC50
Outline: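 RS4;11 cells seeded at 5000 per well, exposed for 3 days to 8- or 12-point 3-fold serial dilutions. Viability read by CellTiter-Glo luminescence; IC50 fitted by nonlinear least-squares regression.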

MV4;11 cells = assay: Cell viability assay (CellTiter-Glo) in MV4;11 cells; conditions: MV4;11, AML, cell viability, 3 days
Method: as §1, §2, §3

KM12 cells = assay: Cell viability assay (CellTiter-Glo) in KM12 cells; conditions: KM12, colorectal carcinoma, 3 days
Method: as §1, §2, §3

Cc1cnc(Nc2ccc(N3CCN(C)CC3)cc2)nc1Nc1cccc(S(=O)(=O)NC(C)(C)C)c1 [TG101209, reference compound]
IC50 (HL-60 cells; Homo sapiens, 72 h): > 10000 nM
IC50 (WSU-DLCL2 cells; Homo sapiens, WSUDLCL2, 72 h): 1070 nM
IC50 (MM.1S cells; Homo sapiens, MM1.S, 72 h): 6110 nM
IC50 (MOLT-4 cells; Homo sapiens, 72 h): 2500 nM
IC50 (CCRF-CEM cells; Homo sapiens, 72 h): 3960 nM
IC50 (AMO-1 cells; Homo sapiens, AMO1, 72 h): 4780 nM
IC50 (HEL cells; Homo sapiens, 72 h): 1200 nM
IC50 (Jurkat cells; Homo sapiens, 72 h): 550 nM
IC50 (MEG-01 cells; Homo sapiens, 72 h): 7120 nM
IC50 (Kasumi-1 cells; Homo sapiens, 72 h): 529 nM
IC50 (MOLM-13 cells; Homo sapiens, 72 h): 48.2 nM
IC50 (Pfeiffer cells; Homo sapiens, 72 h): > 10000 nM
IC50 (SU-DHL-1 cells; Homo sapiens, 72 h): > 10000 nM
IC50 (NCI-H929 cells; Homo sapiens, 72 h): > 10000 nM
IC50 (NOMO-1 cells; Homo sapiens, 72 h): 1300 nM
IC50 (RS4;11 cells; Homo sapiens, 72 h, RS4;11 cells, 3 days, CellTiter-Glo): 1840 nM
IC50 (MV4;11 cells; Homo sapiens, 72 h): 194 nM

Fc1cc(-c2cccc3ncc(-c4cnn(C5CCNCC5)c4)nc23)cc(F)c1CN1CCOCC1 [NVP-BSK805, reference compound]
IC50 (HL-60 cells): > 10000 nM
IC50 (KM12 cells): 2860 nM
IC50 (WSU-DLCL2 cells): > 10000 nM
IC50 (MM.1S cells): > 10000 nM
IC50 (MOLT-4 cells): > 10000 nM
IC50 (CCRF-CEM cells): > 10000 nM
IC50 (AMO-1 cells): > 10000 nM
IC50 (HEL cells): 1040 nM
IC50 (Jurkat cells): 2520 nM
IC50 (MEG-01 cells): 8870 nM
IC50 (Kasumi-1 cells): 758 nM
IC50 (MOLM-13 cells): 201 nM
IC50 (Pfeiffer cells): > 10000 nM
IC50 (SU-DHL-1 cells): > 10000 nM
IC50 (NCI-H929 cells): > 10000 nM
IC50 (NOMO-1 cells): 6280 nM
IC50 (RS4;11 cells; RS4;11, B-ALL, 3 days (Table 3)): > 10000 nM
IC50 (RS4;11 cells; RS4;11 cells, 3 days, CellTiter-Glo): > 10000 nM
IC50 (MV4;11 cells): 390 nM
